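Here, GI50 denotes the concentration required for 50% inhibition of growth. TGI: total growth inhibition.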
What was measured:
Experiment in all cases: NCI tumour cell line growth inhibition, 384-well format
[1] = test system: MALME-3M melanoma
[2] = test system: HOP-92 NSCLC
[3] = test system: MDA-MB-468 breast
[4] = test system: RXF 393 renal
[5] = test system: UO-31 renal
[6] = test system: HS 578T breast
[7] = test system: NCI-H23 lung
[8] = test system: SNB-19 CNS
[9] = test system: MDA-MB-435 melanoma
[10] = test system: PC-3 prostate
[11] = test system: HCT-15 colon
[12] = test system: K-562 leukemia
[13] = test system: T-47D breast
[14] = test system: SK-MEL-2 melanoma
[15] = test system: OVCAR-4 ovarian
[16] = test system: RPMI-8226 leukemia
[17] = test system: SK-MEL-5 melanoma
[18] = test system: SF-539 CNS
[19] = test system: NCI-H322M lung
[20] = test system: 786-0 renal
[21] = test system: NCI-H460 NSCLC
[22] = test system: BT-549 breast
[23] = test system: UACC-62 melanoma
[24] = test system: A498 renal
[25] = test system: MDA-MB-231 breast
[26] = test system: OVCAR-5 ovarian
[27] = test system: M14 melanoma
[28] = test system: NCI/ADR-RES ovarian
[29] = test system: UACC-257 melanoma
[30] = test system: SF-268 CNS
[31] = test system: SNB-75 CNS
[32] = test system: HCT-116 colon
[33] = test system: OVCAR-8 ovarian
[34] = test system: SK-MEL-28 melanoma
[35] = test system: HT29 colon
[36] = test system: CCRF-CEM leukemia
[37] = test system: NCI-H226 lung
[38] = test system: NCI-H522 lung
[39] = test system: SN12C renal
[40] = test system: LOX IMVI melanoma
[41] = test system: TK-10 renal
[42] = test system: HL-60(TB) leukemia
[43] = test system: SW-620 colon
[44] = test system: CAKI-1 renal
[45] = test system: HCC-2998 colon
[46] = test system: COLO 205 colon
[47] = test system: SR leukemia

Structure (SMILES): [2H]c1nc(C)nc([2H])c1-c1cc(NC[C@@H](C)c2cccc3c(C(=O)NC)ccnc23)ncn1
- GI50 [1]: > 100 µM
- TGI [1]: > 100 µM
- GI50 [2]: > 100 µM
- TGI [2]: > 100 µM
- GI50 [3]: > 100 µM
- TGI [3]: > 100 µM
- GI50 [4]: > 100 µM
- TGI [4]: > 100 µM
- GI50 [5]: > 100 µM
- TGI [5]: > 100 µM
- GI50 [6]: > 100 µM
- TGI [6]: > 100 µM
- GI50 [7]: > 100 µM
- TGI [7]: > 100 µM
- GI50 [8]: > 100 µM
- TGI [8]: > 100 µM
- GI50 [9]: > 72.5 µM
- TGI [9]: > 100 µM
- GI50 [10]: > 100 µM
- TGI [10]: > 100 µM
- GI50 [11]: > 100 µM
- TGI [11]: > 100 µM
- GI50 [12]: 48.1 µM
- TGI [12]: > 100 µM
- GI50 [13]: > 100 µM
- TGI [13]: > 100 µM
- GI50 [14]: > 100 µM
- TGI [14]: > 100 µM
- GI50 [15]: > 100 µM
- TGI [15]: > 100 µM
- GI50 [16]: 70.2 µM
- TGI [16]: > 100 µM
- GI50 [17]: > 100 µM
- TGI [17]: > 100 µM
- GI50 [18]: > 100 µM
- TGI [18]: > 100 µM
- GI50 [19]: > 100 µM
- TGI [19]: > 100 µM
- GI50 [20]: > 100 µM
- TGI [20]: > 100 µM
- GI50 [21]: > 100 µM
- TGI [21]: > 100 µM
- GI50 [22]: > 100 µM
- TGI [22]: > 100 µM
- GI50 [23]: > 100 µM
- TGI [23]: > 100 µM
- GI50 [24]: > 100 µM
- TGI [24]: > 100 µM
- GI50 [25]: > 100 µM
- TGI [25]: > 100 µM
- GI50 [26]: > 100 µM
- TGI [26]: > 100 µM
- GI50 [27]: > 100 µM
- TGI [27]: > 100 µM
- GI50 [28]: > 100 µM
- TGI [28]: > 100 µM
- GI50 [29]: > 100 µM
- TGI [29]: > 100 µM
- GI50 [30]: > 100 µM
- TGI [30]: > 100 µM
- GI50 [31]: > 100 µM
- TGI [31]: > 100 µM
- GI50 [32]: > 100 µM
- TGI [32]: > 100 µM
- GI50 [33]: > 100 µM
- TGI [33]: > 100 µM
- GI50 [34]: > 100 µM
- TGI [34]: > 100 µM
- GI50 [35]: > 100 µM
- TGI [35]: > 100 µM
- GI50 [36]: > 100 µM
- TGI [36]: > 100 µM
- GI50 [37]: > 100 µM
- TGI [37]: > 100 µM
- GI50 [38]: > 100 µM
- TGI [38]: > 100 µM
- GI50 [39]: > 100 µM
- TGI [39]: > 100 µM
- GI50 [40]: > 100 µM
- TGI [40]: > 100 µM
- GI50 [41]: > 100 µM
- TGI [41]: > 100 µM
- GI50 [42]: 55.8 µM
- TGI [42]: > 100 µM
- GI50 [43]: > 100 µM
- TGI [43]: > 100 µM
- GI50 [44]: > 100 µM
- TGI [44]: > 100 µM
- GI50 [45]: > 100 µM
- TGI [45]: > 100 µM
- GI50 [46]: > 100 µM
- TGI [46]: > 100 µM
- GI50 [47]: 18.9 µM
- TGI [47]: 50.3 µM
